{"source": "patent US20220395007A1", "about": "“TASTE MODULATING COMPOUNDS AND METHODS OF IMPROVING THE QUALITY OF FOODS AND BEVERAGES” (Ohio State Innovation Foundation, priority 2019, published 2022)", "key": {"[1]": {"test_system": "taste attributes in isolation", "assay": "Taste attributes of the compounds in isolation, by consensus of experienced sensory panelists", "type": "in vivo, human", "details": "same concentrations as in coffee, 5 experienced panelists by consensus", "description": "The taste attributes 4-CQA, 5-CQA, and 2-GA in isolation were further evaluated by 5 experienced sensory panelists by consensus. Each compound was dissolved in 5 mL nanopure water and 5 mL buffer (0.05 M sodium phosphate butter adjusted to pH 5.77 with 0.1 M citric acid) at the same concentrations described above. […] This led to the confirmation that 4-CQA, 5-CQA, and 2-O-β-D-glucopyranosyl-atractyligenin were bitter modulators that suppressed perception."}, "[2]": {"test_system": "perceived bitterness intensity of a coffee rated as having a high bitter intensity", "assay": "Sensory panel evaluation of perceived bitterness intensity of coffee brew", "type": "in vivo, human", "details": "compound added individually to high-bitter coffee (4-CQA about 177 mg/L, 5-CQA about 181 mg/L, 2-GA about 45 mg/L); eight trained panelists, nose clips, room temperature, duplicate; p<0.05", "description": "4-CQA (4-caffeoylquinic acid) (about 177 mg/L), 5-CQA (5-caffeoylquinic acid) (about 181 mg/L), and 2-GA (2-O-β-D-glucopyranosyl-atractyligenin) (about 45 mg/L) were added individually or as a group to a coffee rated as having a high bitter intensity. Five mL of each sample at room temperature was presented to experienced sensory panelists in 1 oz black cups labeled with 3-digit codes in random order. Eight trained panelists, recruited by Flavor Research and Education Center (FREC) at The Ohio State University, used nose clips during the evaluation in order to prevent interactions with olfactory responses. Between samples, panelists waited a minimum of 90 seconds and were asked to cleanse their palate using crackers and water. All evaluations were conducted in duplicate using Compusense Cloud software (Compusense Inc., Guelph, ON, Canada). […] FIGS. 1 and 2."}, "[3]": {"details": "dissolved in 5 mL buffer (0.05 M sodium phosphate adjusted to pH 5.77 with 0.1 M citric acid)"}, "[4]": {"details": "dissolved in 5 mL nanopure water"}}, "data": [{"smiles": "C=C1[C@@H]2CCC3[C@@](CC[C@@H]4[C@H](C(=O)O)C[C@@H](O[C@@H]5O[C@H](CO)[C@@H](O)[C@H](O)[C@H]5O)C[C@@]34C)(C2)[C@H]1O", "note": "(stereo partly drawn) [2-GA, 2-O-β-D-glucopyranosyl-atractyligenin]", "values": [{"measurement": "taste attribute in isolation", "setting": "[1]; [3]", "result": "no obvious taste character"}, {"measurement": "taste attribute in isolation", "setting": "[1]; [4]", "result": "no obvious taste character"}, {"measurement": "perceived bitterness intensity of the coffee brew", "setting": "[2]", "result": "significantly reduce"}]}, {"smiles": "O=C(/C=C/c1ccc(O)c(O)c1)O[C@H]1C(O)C[C@](O)(C(=O)O)C[C@H]1O", "note": "(stereo partly drawn) [4-CQA, 4-O-caffeoylquinic acid]", "values": [{"measurement": "taste attribute in isolation", "setting": "[1]; [3]", "result": "very weak sour taste"}, {"measurement": "taste attribute in isolation", "setting": "[1]; [4]", "result": "very weak sour taste"}, {"measurement": "perceived bitterness intensity of the coffee brew", "setting": "[2]", "result": "significantly reduce"}]}, {"smiles": "O=C(/C=C/c1ccc(O)c(O)c1)O[C@@H]1C[C@@](O)(C(=O)O)C[C@@H](O)[C@@H]1O", "note": "[5-CQA, 5-O-caffeoylquinic acid]", "values": [{"measurement": "taste attribute in isolation", "setting": "[1]; [3]", "result": "very weak sour taste"}, {"measurement": "taste attribute in isolation", "setting": "[1]; [4]", "result": "very weak sour taste"}, {"measurement": "perceived bitterness intensity of the coffee brew", "setting": "[2]", "result": "significantly reduce"}]}]}
